In patent publication US20220008495A1, “APPLICATION OF PHLEGMYHEATCLEAR IN PREPARATION OF DRUG FOR TREATMENT OF ACUTE EXACERBATION OF CHRONIC OBSTRUCTIVE PULMONARY DISEASE” (SHANGHAI KAIBAO PHARMACEUTICAL CO., LTD., priority 2020, published 2022):
Marks after values point to notes of the source that are not given here.

Tests used:
Format in all cases: in vivo, SD rats
[1] = tested on: model of rats with acute exacerbation of chronic obstructive pulmonary disease; assay: Determination of IL-6, IL-10 in serum and TNF-α in alveolar lavage fluid (ELISA); conditions: dexamethasone 0.23 mg/kg/d gavage 7 days, n=10-12
Experimental: The administration was started from the 2nd day of the 13th week. The same volume of purified water (10 ml/kg/d) was administered intragastrically to rats in the blank control group and the model control group, and the other groups were received high dose of phlegmyheatclear, middle dose of phlegmyheatclear, low dose of phlegmyheatclear, and dexamethasone once a day. All the rats were fasted within 12 hours before sampling of blood, however, the rats were allowed to free access to water. […] Then the rats were anesthetized by intraperitoneal injection of 10% 1.0 ml/100 g urethane. Exposed tracheal intubation was performed. […]

[2] = tested on: model of rats with acute exacerbation of chronic obstructive pulmonary disease; assay: Determination of serum CRP and SAA levels (ELISA); conditions: dexamethasone 0.23 mg/kg/d gavage 7 days, x±SD, n=9-12
From the text: The rats were allowed to acclimate to their surroundings for 7 days since purchased from the specific company. The rats were fed sterilized feed and allowed to free access to sterilized water. Operators regularly checked purification and water and electricity operating system to keep a quite environment. 14 rats were selected to fall into a blank control group, and the remaining rats were subjected to cigarette smoking and repeatedly infected with Klebsiella pneumoniae (KP) to establish chronic obstructive pulmonary disease (COPD) stable-phase model of rats. The method comprises the steps of: light a cigarette, making smoke concentration reach 3000±500 ppm, twice a day. The rats took a rest for at least 3 hours between the two times of being exposed to cigarette smoking, lasting for a total of 12 weeks. From 1 to 8 weeks, model of rats were instilled KP suspension (6×10^8 CFU/ml) 0.1 ml through the nasal cavity every 5 days. Instillation via the nasal cavity: a sterilized 1 ml syringe was used to draw 0.1 ml of KP suspension; the KP suspension was instilled into the rats when the rats were breathing in, and the instillation process was done in either the left and right nostrils in an alternating way. […]
The administration was started from the 2nd day of the 13th week. […] Changes of the pulmonary functions of the rats were detected by using an animal pulmonary function test system (PET). […]

[3] = tested on: model of rats with acute exacerbation of chronic obstructive pulmonary disease; assay: Complete blood count (peripheral blood inflammatory cells); conditions: dexamethasone 0.23 mg/kg/d gavage 7 days, x±SD
From the text: (§1) The rats were allowed to acclimate to their surroundings for 7 days since purchased from the specific company. The rats were fed sterilized feed and allowed to free access to sterilized water. Operators regularly checked purification and water and electricity operating system to keep a quite environment. 14 rats were selected to fall into a blank control group, and the remaining rats were subjected to cigarette smoking and repeatedly infected with Klebsiella pneumoniae (KP) to establish chronic obstructive pulmonary disease (COPD) stable-phase model of rats. The method comprises the steps of: light a cigarette, making smoke concentration reach 3000±500 ppm, twice a day. The rats took a rest for at least 3 hours between the two times of being exposed to cigarette smoking, lasting for a total of 12 weeks. From 1 to 8 weeks, model of rats were instilled KP suspension (6×10^8 CFU/ml) 0.1 ml through the nasal cavity every 5 days. Instillation via the nasal cavity: a sterilized 1 ml syringe was used to draw 0.1 ml of KP suspension; the KP suspension was instilled into the rats when the rats were breathing in, and the instillation process was done in either the left and right nostrils in an alternating way. Lipopolysaccharide (LPS) 2 mg/kg was instilled into the trachea on the first day of the 13th week to establish model of rats with acute exacerbation of chronic obstructive pulmonary disease. After successful modeling, the model of rats were randomly divided into five groups, including a model control group, a high dose of phlegmyheatclear group, a middle dose of phlegmyheatclear group, a low dose of phlegmyheatclear group, and a dexamethasone group, with 12 rats in each group.
The administration was started from the 2nd day of the 13th week. The same volume of purified water (10 ml/kg/d) was administered intragastrically to rats in the blank control group and the model control group, and the other groups were received high dose of phlegmyheatclear, middle dose of phlegmyheatclear, low dose of phlegmyheatclear, and dexamethasone once a day. All the rats were fasted within 12 hours before sampling of blood, however, the rats were allowed to free access to water. Blood samples were collected from caudal vein for CBC. Then the rats were anesthetized by intraperitoneal injection of 10% 1.0 ml/100 g urethane. Exposed tracheal intubation was performed. Changes of the pulmonary functions of the rats were detected by using an animal pulmonary function test system (PET). […]
Blood samples were collected from caudal vein for CBC, the following items were counted: the white blood cell count (WBC), the ratio of neutrophils (NEU %), the percentage of lymphocytes (% LYMPH) and the percentage of mononuclear cells (% MONO).

[4] = tested on: model of rats with acute exacerbation of chronic obstructive pulmonary disease; assay: Pathological examination of lung tissue (HE staining; MLI, MAN, bronchial wall thickness); conditions: dexamethasone 0.23 mg/kg/d gavage 7 days; x±SD, n=8
Experimental: The administration was started from the 2nd day of the 13th week. The same volume of purified water (10 ml/kg/d) was administered intragastrically to rats in the blank control group and the model control group, and the other groups were received high dose of phlegmyheatclear, middle dose of phlegmyheatclear, low dose of phlegmyheatclear, and dexamethasone once a day. All the rats were fasted within 12 hours before sampling of blood, however, the rats were allowed to free access to water. […] Then the rats were anesthetized by intraperitoneal injection of 10% 1.0 ml/100 g urethane. Exposed tracheal intubation was performed. […] The rat trachea and the whole lung were taken out by thoracotomy. […]

[5] = tested on: model of rats with acute exacerbation of chronic obstructive pulmonary disease; assay: Lung functions (animal pulmonary function test system); conditions: dexamethasone 0.23 mg/kg/d gavage 7 days; x±SD, n=6-12
From the text: as §1
The administration was started from the 2nd day of the 13th week. The same volume of purified water (10 ml/kg/d) was administered intragastrically to rats in the blank control group and the model control group, and the other groups were received high dose of phlegmyheatclear, middle dose of phlegmyheatclear, low dose of phlegmyheatclear, and dexamethasone once a day. All the rats were fasted within 12 hours before sampling of blood, however, the rats were allowed to free access to water. Blood samples were collected from caudal vein for CBC. Then the rats were anesthetized by intraperitoneal injection of 10% 1.0 ml/100 g urethane. Exposed tracheal intubation was performed. Changes of the pulmonary functions of the rats were detected by using an animal pulmonary function test system (PET). Blood was collected from the abdominal aorta, and the collected blood was placed for 2 hours and centrifuged to obtain the blood serum to detect the levels of inflammatory factors IL-6, IL-10, CRP and SAA. The rat trachea and the whole lung were taken out by thoracotomy. The right main bronchus was ligated, and the left bronchoalveolar lavage fluid (BALF) was drawn out to detect the level of inflammatory factor TNF-α; the left lung was perfused with 4% paraformaldehyde for 1 hour, and the left lung was directly fixed in the 4% paraformaldehyde for pathological examination.
Before sampling, the rats were anesthetized by intraperitoneal injection of 10% 1.0 ml/100 g urethane. Exposed tracheal intubation was performed. Relevant parameters of each rat were detected by using an animal pulmonary function test system (PET), wherein the parameters include forced vital capacity (FVC), forced expiratory volume at 0.1 s (FEV0.1), forced expiratory volume at 0.3 s (FEV0.3), maximum expiratory flow rate (PEF), mid-maximum expiratory flow (MMEF), functional residual capacity (FRC), and other parameters, changes in lung function (x±SD) of rats in each group are shown in Table 3.

With `C[C@@H]1C[C@H]2[C@@H]3CCC4=CC(=O)C=C[C@]4(C)[C@@]3(F)[C@@H](O)C[C@]2(C)[C@@]1(O)C(=O)CO` [Dexamethasone, dexamethasone] the TNF-α ([1]; alveolar lavage fluid (BALF)) was 325.52 ± 49.51^bb pg/mL, the IL-6 ([1]; serum) was 507.54 ± 185.62^bb pg/mL and the IL-10 ([1]; serum) was 40.65 ± 6.31 ^ pg/mL. The CRP [2] was 3420.23 ± 1254.10^bb ng/mL, the SAA [2] was 19.18 ± 6.18^bb μg/mL and the “LYM (percentage of lymphocytes)” value [3] was 82.15 ± 15.32%. The “MONO (percentage of mononuclear cells)” value [3] was 0.61 ± 0.25^b %, the “NEU (ratio of neutrophils)” value [3] was 16.57 ± 14.99% and the “WBC (white blood cell count)” value [3] was 3.80 ± 1.53^bb *10^9/L. The “MAN (mean alveolar numbers)” value [4] was 330.49 ± 77.29 ↑/mm^2, the “MLI (mean linear intercept)” value [4] was 47.24 ± 5.78 μm and the Wt (bronchial wall thickness) [4] was 16.6 ± 4.01 µm. The “FEV0.1 (forced expiratory volume at 0.1 s)” value [5] was 5.31 ± 2.90 mL, the “FEV0.3 (forced expiratory volume at 0.3 s)” value [5] was 15.06 ± 2.84 ^b mL and the “FRC (functional residual capacity)” value [5] was 4.37 ± 1.48 mL. For the same molecule, the “FVC (forced vital capacity)” value [5] was 16.33 ± 2.01^bb mL, the MMEF (mid-maximum expiratory flow) [5] was 78.6 ± 29.1 mL/s and the “PEF (maximum expiratory flow rate)” value [5] was 81.57 ± 29.43 mL/S.
